Measured values published in US20100119489A1, “Stimulation of Pancreatic Beta Cell Proliferation” (priority 2005, published 2010).

How the values were obtained:
TMEM27 [1] = test: Shedding of TMEM27 from MIN6 cells (immunoblot of supernatant, N-terminus; anti-V5 C-terminus as control); type: cell-based; details: 2 hrs in OPTI-MEM
Protocol: The pancreatic beta-cell line MIN6 was cultured with DMEM medium containing 25 mM glucose, 15% fetal bovine serum, and 5.5 μM 2-mercaptoethanol. MIN6 cells were plated at 50% confluency in 12 well plates and incubated for 24 hrs. Cells were washed with OPTI-MEM (Invitrogen) and incubated with either DMSO or protease inhibitor BB94 (1 μM) for 15 minutes in OPTI-MEM at 37° C. After the above incubation, cells were incubated with DMSO, PMA (Sigma P8139), BB94, or PMA+BB94 for 2 hrs in OPTI-MEM. 30 μl of each supernatant was collected for SDS-PAGE. Immunoblots were performed using anti-TMEM27 antibodies recognizing the N-terminus (cleaved portion) of TMEM27 (FIG. 8). […] Since BB94 is a known inhibitor of serine proteases and metalloproteases, this may indicate that TMEM27 is a substrate of a protease belonging to serine protease or metalloprotease family.

TMEM27 [2] = test: Inhibition of N-glycosylation of TMEM27 in MIN6 cells (SDS-PAGE, immunoblot); type: cell-based; details: increasing concentrations of tunicamycin, 12 hours at 37° C.
Protocol: (§1) (A) MIN6 cells were incubated with increasing amounts of tunicamycin, which inhibits glycosylation at asparagine residues. Addition of DMSO alone to the cells had no effect. (B) Supernatant from MIN6 cells was incubated with N-glycanase. […] Secreted protein was detected with anti-Col-3 antibody. (C) MIN6 cell lysates were incubated with either PBS or cross-linking reagents DTBP and BMH. […] Under reducing conditions, only the monomer was detected in PBS and DTBP-treated cell lysates. In contrast, the dimer persisted in BMH-treated samples as BMH cross-linking could not be reversed.
MIN6 cells that express pV5-TMEM27 were incubated with indicated concentrations of tunicamycin (Sigma) dissolved in DMSO and with DMSO alone for 12 hours at 37° C. Cell lysates were then subjected to SDS-PAGE and immunoblotting with anti-V5 antibody.
TMEM27 contains two predicted N-glycosylation sites at amino acid residues 76 and 93. MIN6 cells were treated with tunicamycin, which inhibits N-glycosylation. Cells were incubated in the presence of increasing concentrations of tunicamycin, and protein extracts were prepared and analyzed by SDS-PAGE and immunoblotting.

[3] = target: the molecule itself; test: chemical cross-linking (DTBP, BMH) of MIN6 cell lysates, reducing and non-reducing SDS-PAGE, immunoblot
Protocol: as §1
Chemical cross-linking experiments testing whether TMEM27 protein exists as a multimer were conducted. MIN6 cell extracts were incubated in the presence of two different cross-linking reagents; BMH (bismaleimidohexane), a membrane-permeable, non-cleavable compound and DTBP (dimethyl 3,3′-dithiobispropionimidate), a membrane permeable, cleavable compound prior to SDS-PAGE analysis that was performed under reducing and non-reducing conditions. […] However, the protein dimers disappeared under reducing conditions in the presence of DTBP (FIG. 3b). The results were similar in MIN6 cells that endogenously express TMEM27 and in N2A cells that were transiently transfected with TMEM27 expression vector (data not shown).

Molecule: CCCCCCCCCCCCCC(=O)O[C@@H]1[C@@H](C)[C@@]2(O)[C@@H](C=C(CO)C[C@]3(O)C(=O)C(C)=C[C@@H]23)[C@@H]2C(C)(C)[C@]12OC(C)=O [PMA, phorbol 12-myristate 13-acetate]
- expression levels of TMEM27 (C-terminus, anti-V5 antibody control) (TMEM27 [1]): do not change the expression levels of TMEM27

Molecule: tunicamycin
- effect on TMEM27 bands (N-glycosylation) (TMEM27 [2]): Two bands with increased electrophoretic mobility appeared

B1: TMEM27 full-length protein (other, mouse, UniProt Q9ESG4 15-222, looked up)
chain: ELCHPDAENAFKVRLSIRAALGDKAYVWDTDQEYLFRAMVAFSMRKVPNREATEISHVLLCNITQRVSFWFVVTDPSNNYTLPAAEVQSAIRKNRNRINSAFFLDDHTLEFLKIPSTLAPPMEPSVPVWIIVFGVIFCIVTVAIALLVLSGIRQRRRNNKGPPGVEDAEDKCENIITIENGIPCDPLDMKGGHINDGFLTEDERLTPL
modifications: N-glycosylated (predicted N-glycosylation sites at amino acid residues 76 and 93)
notes: Detected in cell or islet lysates (Western blot) and in fixed, permeabilized MIN6 cells; It also differs from the immunizing peptides, so it is not used here; the transgenic construct uses murine cDNA; also called TMEM protein
- binding result [3]: binds
